Results on 34 compounds are retold here after patent US8680139B2 (Progenra, priority 2009, dated 2014).

Molecules are shown by their SMILES.

T1 sequence (Q93009 whole entry): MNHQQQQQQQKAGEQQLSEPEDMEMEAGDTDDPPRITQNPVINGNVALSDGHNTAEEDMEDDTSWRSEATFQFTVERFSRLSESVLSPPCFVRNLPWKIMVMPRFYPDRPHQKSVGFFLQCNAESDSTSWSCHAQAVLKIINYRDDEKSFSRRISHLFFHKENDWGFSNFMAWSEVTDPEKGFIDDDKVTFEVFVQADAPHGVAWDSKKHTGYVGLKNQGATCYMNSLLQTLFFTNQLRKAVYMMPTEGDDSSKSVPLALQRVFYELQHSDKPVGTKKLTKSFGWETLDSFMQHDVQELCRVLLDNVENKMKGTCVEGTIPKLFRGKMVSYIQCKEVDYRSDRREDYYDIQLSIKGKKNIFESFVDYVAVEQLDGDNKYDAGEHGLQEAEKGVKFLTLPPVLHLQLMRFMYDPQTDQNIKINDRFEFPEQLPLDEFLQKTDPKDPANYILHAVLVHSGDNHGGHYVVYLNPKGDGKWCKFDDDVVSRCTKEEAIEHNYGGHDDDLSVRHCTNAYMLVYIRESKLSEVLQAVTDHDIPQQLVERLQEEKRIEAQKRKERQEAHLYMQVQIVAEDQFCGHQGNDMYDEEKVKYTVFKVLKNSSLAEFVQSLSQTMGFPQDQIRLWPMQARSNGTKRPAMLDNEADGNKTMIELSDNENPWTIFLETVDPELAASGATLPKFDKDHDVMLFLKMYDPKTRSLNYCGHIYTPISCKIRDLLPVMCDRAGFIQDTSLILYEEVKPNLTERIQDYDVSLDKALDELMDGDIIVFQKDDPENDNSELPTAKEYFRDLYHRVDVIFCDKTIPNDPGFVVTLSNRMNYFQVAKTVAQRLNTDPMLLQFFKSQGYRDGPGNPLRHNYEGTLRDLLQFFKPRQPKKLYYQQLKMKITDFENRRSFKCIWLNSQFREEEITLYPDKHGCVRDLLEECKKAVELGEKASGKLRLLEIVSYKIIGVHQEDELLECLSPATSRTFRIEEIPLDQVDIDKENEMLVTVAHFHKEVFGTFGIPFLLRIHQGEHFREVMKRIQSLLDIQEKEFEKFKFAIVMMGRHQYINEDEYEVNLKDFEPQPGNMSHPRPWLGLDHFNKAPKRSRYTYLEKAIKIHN

One data set has as its target T1, USP7 (Homo sapiens, UniProt Q93009).
T1 construct: full length human USP7 protein; made in house
The data set is described as follows: USP7, Ub-PLA2 assay. The format is biochemical. The note with it: Ub-PLA2 / NBD C6-HPC fluorescence, 30 minute preincubation; read-out: EC50 for inhibition of USP7. The method in brief:
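Activity read as fluorescence in a Ub-PLA2 format, with percent inhibition calculated within each plate against DMSO (uninhibited) and NEM (background) wells. Vehicle was 100% DMSO.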
Consider `O=C(Nc1ccc2ncccc2c1)c1cc([N+](=O)[O-])c(Sc2c(Cl)cncc2Cl)s1` [Example 180, 5-((3,5-dichloropyridin-4-yl)thio)-4-nitro-N-(quinolin-6-yl)thiophene-2-carboxamide], for which the EC50 is at most 1000 nM. As for `CC(=O)c1cc(C#N)c(Sc2ccc(Cl)cc2Cl)s1` [Example 21, 1-[4-cyano-5-(2,4-dichlorophenyl)sulfanyl-2-thienyl]ethanone], the EC50 was over 10000 nM.

Take `O=C(NC12CC3CC(CC(O)(C3)C1)C2)c1cc([N+](=O)[O-])c(Sc2c(Cl)cncc2Cl)s1` [Example 176, 5-((3,5-dichloropyridin-4-yl)thio)-N-((1r,3s,5R,7S)-3-hydroxyadamantan-1-yl)-4-nitrothiophene-2-carboxamide]: the EC50 was at most 1000 nM. On the same count and under the same terms, to `CNC(C)c1cc([N+](=O)[O-])c(Sc2ccc(Cl)cc2Cl)s1` (stereo not drawn) [Example 28, 1-[5-(2,4-dichlorophenyl)sulfanyl-4-nitro-2-thienyl]-N-methyl-ethanamine] belongs over 10000 nM. Same read-out and setting: then `O=C(NCc1ccccc1)c1cc([N+](=O)[O-])c(Sc2c(Cl)cncc2Cl)s1` [Example 45, N-benzyl-5-[(3,5-dichloro-4-pyridyl)sulfanyl]-4-nitro-thiophene-2-carboxamide], with 1000 to 10000 nM; and `O=C(CNC(=O)c1cc([N+](=O)[O-])c(Sc2c(Cl)cncc2Cl)s1)NCC(F)F` [Example 219, 5-((3,5-dichloropyridin-4-yl)thio)-N-(2-((2,2-difluoroethyl)amino)-2-oxoethyl)-4-nitrothiophene-2-carboxamide], with 1000 to 10000 nM. For `CN(C)c1cccc(CNC(=O)c2cc([N+](=O)[O-])c(Sc3c(Cl)cncc3Cl)s2)c1` [Example 146, 5-((3,5-dichloropyridin-4-yl)thio)-N-(3-(dimethylamino)benzyl)-4-nitrothiophene-2-carboxamide], the EC50 was at most 1000 nM.

As for `O=C(NCc1ccc(-c2ccccc2)cc1)c1cc([N+](=O)[O-])c(Sc2c(Cl)cncc2Cl)s1` [Example 63, N-([1,1′-biphenyl]-4-ylmethyl)-5-((3,5-dichloropyridin-4-yl)thio)-4-nitrothiophene-2-carboxamide], the EC50 was 1000 to 10000 nM. The same measure, in the same setting: to `CS(=O)(=O)CCCNC(=O)c1cc([N+](=O)[O-])c(Sc2c(Cl)cncc2Cl)s1` [Example 245, 5-((3,5-dichloropyridin-4-yl)thio)-N-(3-(methylsulfonyl)propyl)-4-nitrothiophene-2-carboxamide] belongs 1000 to 10000 nM; to `CN1CCC(NC(=O)c2cc([N+](=O)[O-])c(Sc3c(Cl)c[n+]([O-])cc3Cl)s2)CC1` [Example 242, 3,5-dichloro-4-((5-((1-methylpiperidin-4-yl)carbamoyl)-3-nitrothiophen-2-yl)thio)pyridine 1-oxide], 1000 to 10000 nM; to `CC(O)c1ccc(NC(=O)c2cc([N+](=O)[O-])c(Sc3c(Cl)cncc3Cl)s2)cc1` (stereo not drawn) [Example 131, 5-((3,5-dichloropyridin-4-yl)thio)-N-(4-(1-hydroxyethyl)phenyl)-4-nitrothiophene-2-carboxamide], at most 1000 nM. Take `CSCCNC(=O)c1cc([N+](=O)[O-])c(Sc2c(Cl)cncc2Cl)s1` [Example 50, 5-((3,5-dichloropyridin-4-yl)thio)-N-(2-(methylthio)ethyl)-4-nitrothiophene-2-carboxamide]: the EC50 is 1000 to 10000 nM.

With `CCn1cnc(NC(=O)c2cc([N+](=O)[O-])c(Sc3c(Cl)cncc3Cl)s2)n1` [Example 186, 5-((3,5-dichloropyridin-4-yl)thio)-N-(1-ethyl-1H-1,2,4-triazol-3-yl)-4-nitrothiophene-2-carboxamide], the EC50 is at most 1000 nM. For `CN1CCC(NC(=O)c2cc([N+](=O)[O-])c(Sc3c(Cl)cncc3Cl)s2)C1` (stereo not drawn) [Example 94, 5-((3,5-dichloropyridin-4-yl)thio)-N-(1-methylpyrrolidin-3-yl)-4-nitrothiophene-2-carboxamide], the EC50 fell in the range of 1000 to 10000 nM. Regarding `O=C(NCCc1ccc(F)cc1)c1cc([N+](=O)[O-])c(Sc2c(Cl)cncc2Cl)s1` [Example 120, 5-((3,5-dichloropyridin-4-yl)thio)-N-(4-fluorophenethyl)-4-nitrothiophene-2-carboxamide], the EC50 was at most 1000 nM.

For `O=C(Nc1ccc(F)cc1)c1cc([N+](=O)[O-])c(Sc2c(Cl)cncc2Cl)s1` [Example 136, 5-((3,5-dichloropyridin-4-yl)thio)-N-(4-fluorophenyl)-4-nitrothiophene-2-carboxamide], the EC50 is at most 1000 nM.

As to `O=C(NCc1ccc2c(c1)OCCO2)c1cc([N+](=O)[O-])c(Sc2c(Cl)cncc2Cl)s1` [Example 147, 5-((3,5-dichloropyridin-4-yl)thio)-N-((2,3-dihydrobenzo[b][1,4]dioxin-6-yl)methyl)-4-nitrothiophene-2-carboxamide], the EC50 was at most 1000 nM.

In the case of `CN1CCC(NC(=O)c2cc([N+](=O)[O-])c(Oc3c(Cl)cncc3Cl)s2)CC1` [Example 259, 5-((3,5-dichloropyridin-4-yl)oxy)-N-(1-methylpiperidin-4-yl)-4-nitrothiophene-2-carboxamide], the EC50 is over 10000 nM. For `O=C(NCc1ccc(O)cc1)c1cc([N+](=O)[O-])c(Sc2c(Cl)cncc2Cl)s1` [Example 165, 5-((3,5-dichloropyridin-4-yl)thio)-N-(4-hydroxybenzyl)-4-nitrothiophene-2-carboxamide], the EC50 is at most 1000 nM.

With `CC(O)c1cc([N+](=O)[O-])c(Sc2cccc(Cl)c2Cl)s1` (stereo not drawn) [Example 19, 1-[5-(2,3-dichlorophenyl)sulfanyl-4-nitro-2-thienyl]ethanol], the EC50 is over 10000 nM. On to `CN1CCN(C(=O)CNC(=O)c2cc([N+](=O)[O-])c(Sc3c(Cl)cncc3Cl)s2)CC1` [Example 218, 5-((3,5-dichloropyridin-4-yl)thio)-N-(2-(4-methylpiperazin-1-yl)-2-oxoethyl)-4-nitrothiophene-2-carboxamide], for which the concentration for a half-maximal effect (EC50) was 1000 to 10000 nM. Turning to `CC(=O)c1cc([N+](=O)[O-])c(Sc2ccc(Br)cc2)s1` [Example 12, 1-[5-(4-Bromophenylsulfanyl)-4-nitro-2-thienyl]ethanone], the EC50 fell in the range of 1000 to 10000 nM.

On to `O=C(NCCCN1CCCCC1)c1cc([N+](=O)[O-])c(Sc2ccc(Cl)cc2Cl)s1` [Example 249, 5-((2,4-dichlorophenyl)thio)-4-nitro-N-(3-(piperidin-1-yl)propyl)thiophene-2-carboxamide], for which the EC50 is 1000 to 10000 nM. Regarding `CC(=O)c1cc([N+](=O)[O-])c(S(=O)(=O)c2ccc(Cl)cc2Cl)s1` [Example 35, 1-[5-(2,4-dichlorophenyl)sulfonyl-4-nitro-2-thienyl]ethanone], the EC50 was in the range of 1000 to 10000 nM. For `O=C(NCc1cccnc1)c1cc([N+](=O)[O-])c(Sc2c(Cl)cncc2Cl)s1` [Example 101, 5-((3,5-dichloropyridin-4-yl)thio)-4-nitro-N-(pyridin-3-ylmethyl)thiophene-2-carboxamide], the half-maximal effective concentration (EC50) was at most 1000 nM. Regarding `CC(C)(C)OC(=O)N1CCC(NC(=O)c2cc([N+](=O)[O-])c(Sc3c(Cl)cncc3Cl)s2)CC1` [Example 85, tert-butyl 4-(5-((3,5-dichloropyridin-4-yl)thio)-4-nitrothiophene-2-carboxamido)piperidine-1-carboxylate], the EC50 fell in the range of 1000 to 10000 nM. Turning to `O=C(NCc1cccc(C(F)(F)F)c1)c1cc([N+](=O)[O-])c(Sc2c(Cl)cncc2Cl)s1` [Example 148, 5-((3,5-dichloropyridin-4-yl)thio)-4-nitro-N-(3-(trifluoromethyl)benzyl)thiophene-2-carboxamide], the EC50 was at most 1000 nM. Regarding `O=C(Nc1ccc(Cl)cc1Cl)c1cc([N+](=O)[O-])c(Sc2c(Cl)cncc2Cl)s1` [Example 141, N-(2,4-dichlorophenyl)-5-((3,5-dichloropyridin-4-yl)thio)-4-nitrothiophene-2-carboxamide], the half-maximal effective concentration (EC50) is at most 1000 nM. Take `CN(C)CCCOc1cccc(CNC(=O)c2cc([N+](=O)[O-])c(Sc3c(Cl)cncc3Cl)s2)c1` [Example 126, 5-[(3,5-dichloro-4-pyridyl)sulfanyl]-N-[[3-(3-dimethylaminopropoxy)phenyl]methyl]-4-nitro-thiophene-2-carboxamide]: the EC50 was at most 1000 nM. The same measure, in the same setting: then `CC1(C)CCN(CCCNC(=O)c2cc([N+](=O)[O-])c(Sc3c(Cl)cncc3Cl)s2)CC1` [Example 229, 5-((3,5-dichloropyridin-4-yl)thio)-N-(3-(4,4-dimethylpiperidin-1-yl)propyl)-4-nitrothiophene-2-carboxamide], with at most 1000 nM; and `CCN1C[C@H](NC(=O)c2cc([N+](=O)[O-])c(Sc3c(Cl)cncc3Cl)s2)[C@@H](OC)C1` [Example 92, 5-((3,5-dichloropyridin-4-yl)thio)-N-((3S,4S)-1-ethyl-4-methoxypyrrolidin-3-yl)-4-nitrothiophene-2-carboxamide], with 1000 to 10000 nM. Consider `CC(N)c1cc([N+](=O)[O-])c(Sc2ccc(Cl)cc2Cl)s1` (stereo not drawn) [Example 27, 1-[5-(2,4-dichlorophenyl)sulfanyl-4-nitro-2-thienyl]ethanamine], for which the EC50 was over 10000 nM. Regarding `CN1CCC(CNC(=O)c2cc([N+](=O)[O-])c(Sc3c(Cl)cncc3Cl)s2)CC1` [Example 190, 5-((3,5-dichloropyridin-4-yl)thio)-N-((1-methylpiperidin-4-yl)methyl)-4-nitrothiophene-2-carboxamide], the EC50 is at most 1000 nM.

Consider `CN1CCC(NC(=O)c2sc(Sc3c(Cl)cncc3Cl)c(C#N)c2-c2ccccc2)CC1` [Example 247, 4-cyano-5-((3,5-dichloropyridin-4-yl)thio)-N-(1-methylpiperidin-4-yl)-3-phenylthiophene-2-carboxamide], for which the EC50 is 1000 to 10000 nM.

Tested on in another data set: not listed separately
The data set is described as follows: HCT-116 Cellular Cytotoxicity Assay. The settings on record: human, HCT-116 cells, pH 7.2.
Experimental: The purpose of this assay is to determine if any of the synthesized compounds are cytotoxic against HCT-116 cells, as measured by resazurin metabolism. Resazurin is metabolized only by living cells from a non-fluorescent molecule into Resorufin, a highly red fluorescent dye. […] The cells were cultured in an incubator at 37° C. in 5% CO2 and 95% humidified air. […] The final concentration DMSO was 0.5% (v/v) in all samples. The plates were returned to the incubator for 72 hours. Following 72 hours of test compound exposure, 10 μL of 0.2 mg/mL Resazurin (Sigma) in phosphate buffered saline was added to each well and the plate was returned to the incubator for 3-6 hours. Since living cells metabolize Resazurin, the fluorescence of the reduction product of Resazurin was measured using a microplate fluorometer with λex=531 nm and λem=590 nm filters. Resazurin dye in medium without cells was used to determine the background, which was subtracted from the data for all experimental wells.
`O=C(Nc1ccc2ncccc2c1)c1cc([N+](=O)[O-])c(Sc2c(Cl)cncc2Cl)s1` [Example 180, 5-((3,5-dichloropyridin-4-yl)thio)-4-nitro-N-(quinolin-6-yl)thiophene-2-carboxamide]: the concentration giving a half-maximal response (EC50) at 72 h amounted to 7620 nM. As for `CC(=O)c1cc(C#N)c(Sc2ccc(Cl)cc2Cl)s1` [Example 21, 1-[4-cyano-5-(2,4-dichlorophenyl)sulfanyl-2-thienyl]ethanone], the EC50 at 72 h was found to be 32500 nM.

The term EC50 denotes the concentration needed to bring the measured effect to its halfway point.
